In ChEMBL document CHEMBL1921748, “Renin inhibitors for the treatment of hypertension: design and optimization of a novel series of spirocyclic piperidines” (Bioorg Med Chem Lett, 2011):
Values belong to the molecule of their own block, whether it stands above or below them.

Tests used:
in vitro = conditions: human, liver microsomes
[1] = Metabolic stability in Sprague-Dawley rat hepatocytes assessed as compound remaining at 10 uM after 2 hrs; type: ADME, cell-based, Hepatocyte; conditions: read-out: Stability
[2] = Metabolic stability in rat liver microsomes assessed as compound remaining at 1 uM after 30 mins in presence of NADPH; type: ADME, Microsome; conditions: read-out: Stability
[3] = Metabolic stability in human liver microsomes assessed as compound remaining at 1 uM after 30 mins in presence of NADPH; type: ADME, Microsome; conditions: read-out: Stability
[4] = Volume of distribution at steady state in Sprague-Dawley rat at 3 mg/kg, po and 0.5 mg/kg, iv; type: ADME, organism-based; conditions: in vivo, read-out: Vdss
[5] = Clearance in Beagle dog at 3 mg/kg, po and 1 mg/kg, iv; type: ADME, organism-based, Canis lupus familiaris; conditions: in vivo
[6] = Oral bioavailability in rhesus monkey at 3 mg/kg; type: ADME, organism-based, Macaca mulatta; conditions: in vivo
[7] = Oral bioavailability in Beagle dog at 3 mg/kg; type: ADME, organism-based, Canis lupus familiaris; conditions: in vivo
[8] = Clearance in Sprague-Dawley rat at 3 mg/kg, po and 0.5 mg/kg, iv; type: ADME, organism-based; conditions: in vivo
[9] = Half life in Sprague-Dawley rat at 3 mg/kg, po and 0.5 mg/kg, iv; type: ADME, organism-based; conditions: in vivo
[10] = AUC in Beagle dog at 3 mg/kg, po; type: ADME, organism-based, Canis lupus familiaris; set-up: dose 3 mg/kg, route oral; conditions: plasma
[11] = Volume of distribution at steady state in rhesus monkey at 3 mg/kg, po and 1 mg/kg, iv; type: ADME, organism-based, Macaca mulatta; conditions: in vivo, read-out: Vdss
[12] = Half life in rhesus monkey at 3 mg/kg, po and 1 mg/kg, iv; type: ADME, organism-based, Macaca mulatta; conditions: in vivo
[13] = AUC in Sprague-Dawley rat at 3 mg/kg, po; type: ADME, organism-based; set-up: dose 3 mg/kg, route oral; conditions: plasma
[14] = Oral bioavailability in Sprague-Dawley rat at 3 mg/kg; type: ADME, organism-based; conditions: in vivo
[15] = Half life in Beagle dog at 3 mg/kg, po and 1 mg/kg, iv; type: ADME, organism-based, Canis lupus familiaris; conditions: in vivo
[16] = Clearance in rhesus monkey at 3 mg/kg, po and 1 mg/kg, iv; type: ADME, organism-based, Macaca mulatta; conditions: in vivo
[17] = AUC in rhesus monkey at 3 mg/kg, po; type: ADME, organism-based, Macaca mulatta; set-up: dose 3 mg/kg, route oral; conditions: plasma
[18] = Volume of distribution at steady state in Beagle dog at 3 mg/kg, po and 1 mg/kg, iv; type: ADME, organism-based, Canis lupus familiaris; conditions: in vivo, read-out: Vdss
[19] = Half life in Sprague-Dawley rat at 0.3 mg/kg, po; type: ADME, organism-based; set-up: dose 0.3 mg/kg, route oral; conditions: in vivo
[20] = Oral bioavailability in Sprague-Dawley rat at 30 mg/kg; type: ADME, organism-based; conditions: in vivo
[21] = Oral bioavailability in Sprague-Dawley rat at 0.3 mg/kg; type: ADME, organism-based; conditions: in vivo
[22] = Apparent permeability of the compound; type: ADME; conditions: not told
[23] = Clearance in Sprague-Dawley rat at 0.3 mg/kg, po; type: ADME, organism-based; set-up: dose 0.3 mg/kg, route oral; conditions: in vivo
Rattus norvegicus = experiment: Volume of distribution at steady state in Sprague-Dawley rat at 0.3 mg/kg, po; type: ADME, organism-based; set-up: dose 0.3 mg/kg, route oral; conditions: in vivo
[24] = Metabolic stability in dog liver microsomes assessed as compound remaining at 1 uM after 30 mins in presence of NADPH; type: ADME, Canis lupus familiaris, Microsome; conditions: read-out: Stability
[25] = Metabolic stability in rhesus monkey liver microsomes assessed as compound remaining at 1 uM after 30 mins in presence of NADPH; type: ADME, Macaca mulatta, Microsome; conditions: read-out: Stability

- remaining at 1 h, 10 µM (in vitro): 50%
Compound: O=C([C@H]1CNCC[C@@]12OCc1cc(F)c(F)cc12)N(Cc1cccc(C(F)(F)F)c1Cl)C1CC1

- remaining at 2 h, 10 µM [1]: 8%
- remaining at 0.5 h, 1 µM [2]: 0%
- remaining at 0.5 h, 1 µM [3]: 1%
Compound: Cc1cccc(CN(C(=O)[C@H]2CNCC[C@@]23OCc2cc(F)c(F)cc23)C2CC2)c1C

More lines, now with the values behind:

Compound: COCCCc1cc(CCCN2CCOCC2)c(Cl)c(CN(C(=O)[C@H]2CNCC[C@@]23OCc2cc(F)c(F)cc23)C2CC2)c1.Cl.Cl.Cl
- Vd [4]: 24 L/kg
- clearance [5]: 73 mL/min/kg
- bioavailability [6]: 1%
- bioavailability [7]: 1%
- clearance [8]: 47 mL/min/kg
- half-life [9]: 318 min
- AUC [10]: 0.01 µM·h
- Vd [11]: 45 L/kg
- half-life [12]: 300 min
- AUC [13]: 0.37 µM·h
- bioavailability [14]: 23%
- half-life [15]: 600 min
- clearance [16]: 66 mL/min/kg
- AUC [17]: 0.01 µM·h
- Vd [18]: 73 L/kg

Compound: COCCCc1cc(CN(C(=O)[C@H]2CNCC[C@]2(O)c2ccc(F)c(F)c2)C2CC2)cc(OCCOC)c1
- half-life [19]: 90 min
- bioavailability [20]: 18%
- bioavailability [14]: 29%
- bioavailability [21]: 17%
- Papp [22]: 21.5 ×10⁻⁶ cm/s
- CL/F [23]: 36 mL/min/kg
- Vdss (Rattus norvegicus): 5 L/kg

Compound: COCCCc1cc(CCCN2CCOCC2)c(Cl)c(CN(C(=O)[C@H]2CNCC[C@@]23OCc2cc(F)c(F)cc23)C2CC2)c1
- remaining at 0.5 h, 1 µM [24]: 43%
- remaining at 0.5 h, 1 µM [25]: 10%
- remaining at 0.5 h, 1 µM [2]: 53%
- remaining at 0.5 h, 1 µM [3]: 51%
